Results: publication PMC6941148 (Journal of medicinal chemistry, 2019)

Assays:
WT HIV-1 strain NL4-3 = experiment: Cell-based antiviral assay; conditions: relative to DRV
[1] = molecular target: HIV-1 protease I84V variant (Human immunodeficiency virus type 1 group M subtype B, UniProt P12497, I572V/Q495K); assay type: biochemical
MDR HIV-1 variant VSL20 = experiment: Cell-based antiviral assay; conditions: relative to corresponding isobutyl analogues 12 and 13

SMILES | fold less active than DRV against wild-type HIV-1 (WT HIV-1 strain NL4-3) [fold] | fold loss in potency against VSL20 compared to analogues 12 and 13 (MDR HIV-1 variant VSL20) [fold] | other results
CCC(CC)CN(C[C@@H](O)[C@H](Cc1ccccc1)NC(=O)O[C@H]1CO[C@H]2OCC[C@H]21)S(=O)(=O)c1ccc([C@H](O)CO)cc1 [Compound 27, (3R,3aS,6aR)-Hexahydrofuro[2,3-b]furan-3-yl ((2S,3R)-4-((4-((S)-1,2-dihydroxyethyl)-N-(2-ethylbutyl)phenyl)sulfonamido)-3-hydroxy-1-phenylbutan-2-yl)carbamate] | 8 |  | fold less potent against the protease variants tested than the (R)-epimer 26 ([1]; I84V and I50V/A71V variants, relative to 26): 2–3 fold
CC[C@H](C)CN(C[C@@H](O)[C@H](Cc1ccccc1)NC(=O)O[C@H]1CO[C@H]2OCC[C@H]21)S(=O)(=O)c1ccc([C@H](C)O)cc1 [Compound 14, (3R,3aS,6aR)-Hexahydrofuro[2,3-b]furan-3-yl ((2S,3R)-3-hydroxy-4-((4-((S)-1-hydroxyethyl)-N-((S)-2-methylbutyl)phenyl)sulfonamido)-1-phenylbutan-2-yl)carbamate] |  | 2 | 
CC[C@H](C)CN(C[C@@H](O)[C@H](Cc1ccccc1)NC(=O)O[C@H]1CO[C@H]2OCC[C@H]21)S(=O)(=O)c1ccc([C@@H](C)O)cc1 [Compound 15, (3R,3aS,6aR)-Hexahydrofuro[2,3-b]furan-3-yl ((2S,3R)-3-hydroxy-4-((4-((R)-1-hydroxyethyl)-N-((S)-2-methylbutyl)phenyl)sulfonamido)-1-phenylbutan-2-yl)carbamate] |  | 2 | 
CCC(CC)CN(C[C@@H](O)[C@H](Cc1ccccc1)NC(=O)O[C@H]1CO[C@H]2OCC[C@H]21)S(=O)(=O)c1ccc([C@@H](O)CO)cc1 [Compound 26, (3R,3aS,6aR)-Hexahydrofuro[2,3-b]furan-3-yl ((2S,3R)-4-((4-((R)-1,2-dihydroxyethyl)-N-(2-ethylbutyl)phenyl)sulfonamido)-3-hydroxy-1-phenylbutan-2-yl)carbamate] | 8 |  | 
CC(C)CN(C[C@@H](O)[C@H](Cc1ccccc1)NC(=O)O[C@H]1CO[C@H]2OCC[C@H]21)S(=O)(=O)c1ccc([C@H](O)CO)cc1 [Compound 23, (3R,3aS,6aR)-Hexahydrofuro[2,3-b]furan-3-yl ((2S,3R)-4-((4-((S)-1,2-dihydroxyethyl)-N-isobutylphenyl)sulfonamido)-3-hydroxy-1-phenylbutan-2-yl)carbamate] |  |  | fold less active against the I84V protease than the P2′ epimer 22 ([1]; I84V protease, relative to diastereoisomer 22): about 3 fold
